From ChEMBL document CHEMBL1150771, “Synthesis and potency of novel uracil nucleotides and derivatives as P2Y2 and P2Y6 receptor agonists” (Bioorg Med Chem, 2008)
pEC50: −log10 of the molar value.

Legend:
P2Y purinoceptor 6 = P2Y purinoceptor 6 (Homo sapiens, UniProt Q15077); experiment: Agonist activity at human P2Y6 receptor expressed in human 1321N1 cells assessed as [3H]inositol phosphate accumulation by scintillation proximity assay; format: functional, cell-based
P2Y purinoceptor 4 = P2Y purinoceptor 4 (Homo sapiens, UniProt P51582); experiment: Agonist activity at human P2Y4 receptor expressed in human 1321N1 cells assessed as [3H]inositol phosphate accumulation by scintillation proximity assay; format: functional, cell-based
P2Y purinoceptor 4, sequence (P51582 whole entry): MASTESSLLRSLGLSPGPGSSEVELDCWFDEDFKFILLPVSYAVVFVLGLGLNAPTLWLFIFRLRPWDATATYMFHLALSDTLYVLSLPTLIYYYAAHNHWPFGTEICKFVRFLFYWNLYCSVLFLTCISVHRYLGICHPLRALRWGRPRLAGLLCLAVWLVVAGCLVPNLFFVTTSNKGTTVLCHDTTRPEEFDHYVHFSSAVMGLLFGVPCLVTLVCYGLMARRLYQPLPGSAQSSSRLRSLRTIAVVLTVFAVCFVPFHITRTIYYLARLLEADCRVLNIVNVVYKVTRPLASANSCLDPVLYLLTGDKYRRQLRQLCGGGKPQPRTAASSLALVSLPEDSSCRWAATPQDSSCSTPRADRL

P2Y purinoceptor 2 = P2Y purinoceptor 2 (Homo sapiens, UniProt P41231); experiment: Agonist activity at human P2Y2 receptor expressed in human 1321N1 cells assessed as [3H]inositol phosphate accumulation by scintillation proximity assay; format: functional, cell-based
P2Y purinoceptor 2, sequence (P41231 whole entry): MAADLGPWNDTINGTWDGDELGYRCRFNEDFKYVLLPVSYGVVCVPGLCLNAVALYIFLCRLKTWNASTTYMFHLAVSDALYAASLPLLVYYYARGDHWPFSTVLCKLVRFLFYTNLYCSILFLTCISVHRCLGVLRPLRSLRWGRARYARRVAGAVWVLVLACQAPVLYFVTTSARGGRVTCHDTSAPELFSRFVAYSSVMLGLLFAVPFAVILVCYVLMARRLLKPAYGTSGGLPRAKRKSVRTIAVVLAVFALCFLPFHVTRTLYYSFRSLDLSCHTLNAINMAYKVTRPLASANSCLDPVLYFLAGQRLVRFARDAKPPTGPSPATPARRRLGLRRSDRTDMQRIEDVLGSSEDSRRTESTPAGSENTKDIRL

Homo sapiens = organism: Homo sapiens; experiment: Selectivity for human P2Y2 receptor over human P2Y4 receptor

P2Y purinoceptor 6, sequence (Q15077 whole entry): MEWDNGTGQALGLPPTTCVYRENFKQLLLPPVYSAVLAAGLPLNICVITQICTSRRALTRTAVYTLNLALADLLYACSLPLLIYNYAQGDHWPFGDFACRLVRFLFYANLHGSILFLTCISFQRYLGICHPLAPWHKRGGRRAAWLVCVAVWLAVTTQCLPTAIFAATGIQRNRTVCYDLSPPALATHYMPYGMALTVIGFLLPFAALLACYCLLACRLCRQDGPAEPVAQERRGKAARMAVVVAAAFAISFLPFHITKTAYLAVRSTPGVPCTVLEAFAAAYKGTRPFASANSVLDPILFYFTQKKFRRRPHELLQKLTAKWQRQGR

Structure (SMILES)	pEC50 (P2Y purinoceptor 6)	pEC50 (P2Y purinoceptor 4)	pEC50 (P2Y purinoceptor 2)	Ratio EC50 (Homo sapiens)
O=c1ccn([C@@H]2O[C@H](COP(=O)(O)OP(=O)(O)OP(=O)(O)OP(=O)(O)OC3CCCCC3)[C@@H](O)[C@H]2O)c(=O)[nH]1	< 5.00	< 5.00	5.23	–
COP(=O)(O)OP(=O)(O)OP(=O)(O)OP(=O)(O)OC[C@H]1O[C@@H](n2ccc(=O)[nH]c2=O)[C@H](O)[C@@H]1O	< 5.00	5.57	5.40	–
O=c1ccn([C@@H]2O[C@H](COP(=O)(O)OP(=O)(O)OP(=O)(O)OP(=O)(O)OCC(O)CO)[C@@H](O)[C@H]2O)c(=O)[nH]1 (stereo not given in full)	5.09	5.95	5.73	–
O=c1ccn([C@@H]2O[C@H](COP(=O)(O)OP(=O)(O)C(F)(F)P(=O)(O)OP(=O)(O)OC[C@H]3O[C@@H](n4ccc(=O)[nH]c4=O)[C@H](O)[C@@H]3O)[C@@H](O)[C@H]2O)c(=O)[nH]1	< 5.00	< 5.00	5.64	–
O=c1[nH]c(=S)ccn1[C@@H]1O[C@H](COP(=O)(O)OP(=O)(O)OP(=O)(O)OP(=O)(O)O)[C@@H](O)[C@H]1O	5.19	6.55	7.15	–
O=c1ccn([C@@H]2O[C@H](COP(=O)(O)OP(=O)(O)C(F)(F)P(=O)(O)O)[C@@H](O)[C@H]2O)c(=S)[nH]1	5.29	5.09	5.79	–
O=c1ccn([C@@H]2O[C@H](COP(=O)(O)OP(=O)(O)OP(=O)(O)OP(=O)(O)Oc3ccccc3)[C@@H](O)[C@H]2O)c(=O)[nH]1	–	–	5.72	–
O=c1ccn([C@@H]2O[C@H](COP(=O)(O)OP(=O)(O)OP(=O)(O)OP(=O)(O)O)[C@@H](O)[C@H]2O)c(=O)[nH]1	5.12	5.33	5.58	–
O=c1ccn([C@@H]2O[C@H](COP(=O)(O)OP(=O)(O)OP(=O)(O)O)[C@@H](O)[C@@H]2O)c(=S)[nH]1	–	5.10	6.85	–
NC(=O)N[C@@H]1[C@H](O)[C@@H](COP(=O)(O)OP(=O)(O)OP(=O)(O)O)O[C@H]1n1ccc(=O)[nH]c1=O	< 5.00	5.33	5.76	–
O=c1ccn([C@@H]2O[C@H](COP(=O)(O)OP(=O)(O)OP(=O)(O)OP(=O)(O)O[C@H]3O[C@H](CO)[C@H](O)[C@H](O)[C@H]3O)[C@@H](O)[C@H]2O)c(=O)[nH]1	5.09	5.75	5.31	–
O=c1ccn([C@@H]2O[C@H](COP(=O)(O)OP(=O)(O)OP(=O)(O)OP(=O)(O)OC[C@@H]3OC(O)[C@@H](O)[C@H]3O)[C@@H](O)[C@H]2O)c(=O)[nH]1 (stereo not given in full)	< 5.00	5.32	5.73	–
O=c1ccn([C@@H]2O[C@H](COP(=O)(O)OP(=O)(O)OP(=O)(O)OC[C@H]3O[C@@H](n4ccc(=O)[nH]c4=O)[C@H](O)[C@@H]3O)[C@@H](O)[C@H]2O)c(=O)[nH]1	6.57	6.06	5.88	–
O=c1ccn([C@@H]2O[C@H](COP(=O)(O)OP(=O)(O)OP(=O)(O)OP(=O)(O)OC[C@H]3OC(O)C[C@@H](O)[C@@H]3O)[C@@H](O)[C@H]2O)c(=O)[nH]1 (stereo not given in full)	< 5.00	5.36	5.45	–
CSc1ccn([C@@H]2O[C@H](COP(=O)(O)OP(=O)(O)OP(=O)(O)O)[C@@H](O)[C@H]2O)c(=S)n1	< 5.00	5.27	6.04	–
O=c1ccn([C@@H]2O[C@H](COP(=O)(O)OP(=O)(O)C(Cl)(Cl)P(=O)(O)OP(=O)(O)OC[C@H]3O[C@@H](n4ccc(=O)[nH]c4=O)[C@H](O)[C@@H]3O)[C@@H](O)[C@H]2O)c(=O)[nH]1	–	–	5.11	–
O=c1ccn([C@@H]2O[C@H](COP(=O)(O)OP(=O)(O)OP(=O)(O)OP(=O)(O)O)[C@@H](O)[C@H]2O)c(=S)[nH]1	5.17	5.26	6.22	–

Structure (SMILES)	pEC50 (P2Y purinoceptor 6)	pEC50 (P2Y purinoceptor 4)	pEC50 (P2Y purinoceptor 2)	Ratio EC50 (Homo sapiens)
O=c1ccn([C@@H]2O[C@H](COP(=O)(O)CP(=O)(O)O)[C@@H](O)[C@H]2O)c(=O)[nH]1	6.18	–	–	–
O=c1ccn([C@@H]2O[C@H](COP(=O)(O)OP(=O)(O)OP(=O)(O)O)[C@@H](O)[C@H]2O)c(=O)[nH]1 [URIDINE TRIPHOSPHATE]	< 5.00	7.05	7.22	–
Nc1ccn([C@H]2C[C@H](O)[C@@H](COP(=O)(O)OP(=O)(O)OP(=O)(O)OP(=O)(O)OC[C@H]3O[C@@H](n4ccc(=O)[nH]c4=S)[C@H](O)[C@@H]3O)O2)c(=O)n1	5.98	6.15	7.10	9
O=c1ccn([C@@H]2O[C@H](COP(=O)(O)OP(=O)(O)OP(=O)(O)OP(=O)(O)OC[C@H]3OC(O)[C@@H](O)[C@@H](O)[C@@H]3O)[C@@H](O)[C@H]2O)c(=O)[nH]1 (stereo not given in full)	< 5.00	< 5.00	< 5.00	–
O=c1ccn([C@@H]2O[C@H](COP(=O)(O)OP(=O)(O)OP(=O)(O)OP(=O)(O)OP(=O)(O)O)[C@@H](O)[C@H]2O)c(=S)[nH]1	5.13	5.28	6.24	–
C[C@@]1(O)[C@H](O)[C@@H](COP(=O)(O)OP(=O)(O)OP(=O)(O)O)O[C@H]1n1ccc(=O)[nH]c1=O	–	5.90	5.84	–
O=c1[nH]c(=S)ccn1[C@@H]1O[C@H](COP(=O)(O)OP(=O)(O)OP(=O)(O)OP(=O)(O)OC[C@H]2O[C@@H](n3ccc(=S)[nH]c3=O)[C@H](O)[C@@H]2O)[C@@H](O)[C@H]1O	5.69	7.10	7.52	–
O=c1ccn([C@@H]2O[C@H](COP(=O)(O)OP(=O)(O)OP(=O)(O)OP(=O)(O)O[C@H]3O[C@H](CO)[C@@H](O)[C@H](O)[C@H]3O)[C@@H](O)[C@H]2O)c(=O)[nH]1	5.11	5.69	6.52	–
Nc1cn([C@@H]2O[C@H](COP(=O)(O)OP(=O)(O)O)[C@@H](O)[C@H]2O)c(=O)[nH]c1=O	6.21	–	–	–
O=c1ccn([C@@H]2O[C@H](COP(=O)(O)OP(=O)(O)OP(=O)(O)OP(=O)(O)OC[C@@H]3O[C@@](O)(CO)[C@H](O)[C@H]3O)[C@@H](O)[C@H]2O)c(=O)[nH]1	–	5.20	5.48	–
NC(=O)N[C@@H]1[C@H](O)[C@@H](COP(=O)(O)OP(=O)(O)O)O[C@H]1n1ccc(=O)[nH]c1=O	5.33	–	–	–
N#CCCOP(=O)(O)OP(=O)(O)OP(=O)(O)OP(=O)(O)OC[C@H]1O[C@@H](n2ccc(=O)[nH]c2=O)[C@H](O)[C@@H]1O	< 5.00	5.71	5.77	–
O=c1ccn([C@@H]2O[C@H](COP(=O)(O)OP(=O)(O)OP(=O)(O)OC[C@H]3O[C@@H](n4cc(I)c(=O)[nH]c4=O)[C@H](O)[C@@H]3O)[C@H]3OC(Cc4ccccc4)O[C@H]32)c(=O)[nH]1 (stereo not given in full)	5.26	–	5.00	–
O=c1ccn([C@@H]2O[C@H](COP(=O)(O)OP(=O)(O)C(Cl)(Cl)P(=O)(O)O)[C@@H](O)[C@H]2O)c(=S)[nH]1	< 5.00	–	5.60	–
Nc1nc2c(ncn2[C@H]2C[C@H](O)[C@@H](COP(=O)(O)OP(=O)(O)OP(=O)(O)OP(=O)(O)OC[C@H]3O[C@@H](n4ccc(=O)[nH]c4=O)[C@H](O)[C@@H]3O)O2)c(=O)[nH]1	5.99	6.27	6.85	–
Nc1ccn([C@H]2C[C@H](O)[C@@H](COP(=O)(O)OP(=O)(O)OP(=O)(O)OP(=O)(O)OC[C@H]3O[C@@H](n4ccc(=O)[nH]c4=O)[C@H](O)[C@@H]3O)O2)c(=O)n1 [DENUFOSOL]	6.02	6.85	6.85	–
